Assay results from US20040043083A1, “Anticancer composition comprising sesquiterpenes isolated from resina ferulae” (priority 2000, published 2004).
Converted amounts (≈) assume the structure as drawn.

Key:
Type in all cases: cell-based
[1] = test system: A549 (human lung cancer cell line); experiment: Inhibition of human cancer cell line proliferation (SRB method), A549; details: A549 cells, 48 hours
Protocol: (§1) A549 (human lung cancer cell line), SK-OV-3 (human ovary cancer cell line), SK-MEL-2 ([…] melanoma cancer cell line), XF498 (Human CNS cancer cell line) and HCT-15 (human colic cancer cell line) were obtained from NCI of U.S. A. and subjected to subculture. The inhibition of the cancer cell line proliferation was determined by the SRB (sulforhodamine B) method in accordance with the procedure described by Skehan, P. et al. (J. Nat'l. Canc. Inst., 82, p1107, 1990) as follows.
(§2) 1) Each of the subcultured cancer cell lines was collected from the surface of the culture vessel, treated with a trypsin-CDTA solution, diluted, and added to each wall of a 96-well plat bottom microplate (Falcon Co.) in an amount of 5×10^3 (A549, HCT-15), 1×10^4 (SK-MEL-2, XF498) or 2×10^4 (SK-OV-3) cells/well, followed by incubation in a CO2 incubator to anchor the cells to the bottom surface. Then the culture medium was removed from the plate with suction, a solution containing a predetermined amount of a test sample (test solution) dissolved in culture medium was added to each well; and the mixture was futher cultured for 48 hours.
(§3) 2) Thereafter, the culture medium was removed from the plate with suction, and […] of 10% TCA (trichloro acetic acid) was added to each well. The plate was allowed to stand at room temperature for one hour to fix the cells, and was washed several times with distilled water to completely remove excess TCA and then dried.
(§4) 3) Each well was treated with 100 μl of an SRB staining solution (0.4% suforhodamine in 1% acetic acid) for 30 minutes, washed several times with 1% acetic acid to remove the remaining staining solution, and dried at room temperature.
(§5) 4) After adding 100 μl of 10 mM Trisma base solution (unbuffered) to each well, the plate was shaken with a titer plate shaker for 10 minutes to elute the staining solution from the cells, and the absorbance thereof at 520 nm was determined with a microplate reader.
(§6) 5) The degree of cancer cell proliferation (% cell growth, i.e., reverse of anticancer activity) of the cell line treated with the test solution was calculated by the following numerical formula wherein C is the number of cells in a control group treated with a culture medium instead of the test solution; Tz, the number of cells at time zero; and T, the number of cells treated with the test solution calculated based on measurement. Numerical formula 1 was used when Tz>T, numerical formula 2, when Tz<T.
(§7) Numerical formula 1=[(T−Tz)/(C−Tz)]×100
(§8) Numerical formula 2=[(T−Tz)/Tz]×100
(§9) 6) The amount of the samples needed for achieving 50% inhibition of the inhibiting cancer cell proliferation (ED50) was calculated from the observed degree of cell proliferation at various concentrations of the sample using the data regression of LOTUS program.

[2] = test system: SK-MEL-2 (human melanoma cancer cell line); experiment: Inhibition of human cancer cell line proliferation (SRB method), SK-MEL-2; details: SK-MEL-2 cells, 48 hours
Protocol: as §1, §2, §3, §4, §5, §6, §7, §8, §9

[3] = test system: XF498 (human CNS cancer cell line); experiment: Inhibition of human cancer cell line proliferation (SRB method), XF498; details: XF498 cells, 48 hours
Protocol: as §1, §2, §3, §4, §5, §6, §7, §8, §9

[4] = test system: HCT-15 (human colic cancer cell line); experiment: Inhibition of human cancer cell line proliferation (SRB method), HCT-15; details: HCT-15 cells, 48 hours
Protocol: as §1, §2, §3, §4, §5, §6, §7, §8, §9

[5] = test system: SK-OV-3 (human ovary cancer cell line); experiment: Inhibition of human cancer cell line proliferation (SRB method), SK-OV-3; details: SK-OV-3 cells, 48 hours
Protocol: as §1, §2, §3, §4, §5, §6, §7, §8, §9

## CC(C)=CCC/C(C)=C/CC/C(C)=C/COc1ccc2ccc(=O)oc2c1 [Compound 3, umbelliprenin]
[1]
  ED50 A549: 8.9 µg/mL (≈ 24.3 µM)
[2]
  ED50 SK-MEL-2: 6.7 µg/mL (≈ 18.3 µM)
[3]
  ED50 XF498: 5.3 µg/mL (≈ 14.5 µM)
[4]
  ED50 HCT-15: 4.1 µg/mL (≈ 11.2 µM)
[5]
  ED50 SK-OV-3: 9.4 µg/mL (≈ 25.6 µM)

## N.N.[Cl][Pt][Cl] [Cisplastine, reference compound]
[1]
  ED50 A549: 1.8 µg/mL
[2]
  ED50 SK-MEL-2: 1.2 µg/mL
[3]
  ED50 XF498: 1.4 µg/mL
[4]
  ED50 HCT-15: 3.2 µg/mL
[5]
  ED50 SK-OV-3: 1.5 µg/mL

## C/C(=C\COc1ccc2ccc(=O)oc2c1)CC[C@@H]1C(C)(C)[C@H]2CC[C@]1(C)O2 [Compound 5, farnesiferol C]
[1]
  ED50 A549: 4.2 µg/mL (≈ 11 µM)
[2]
  ED50 SK-MEL-2: 3.9 µg/mL (≈ 10.2 µM)
[3]
  ED50 XF498: 5.4 µg/mL (≈ 14.1 µM)
[4]
  ED50 HCT-15: 4.3 µg/mL (≈ 11.2 µM)
[5]
  ED50 SK-OV-3: 7.2 µg/mL (≈ 18.8 µM)

## C/C(=C\COc1ccc2ccc(=O)oc2c1)CC/C=C(\C)CCC(O)C(C)(C)O (stereo not drawn) [Compound 2, karatavicinol]
[1]
  ED50 A549: 5.6 µg/mL (≈ 14 µM)
[2]
  ED50 SK-MEL-2: 5.7 µg/mL (≈ 14.2 µM)
[3]
  ED50 XF498: 7.5 µg/mL (≈ 18.7 µM)
[4]
  ED50 HCT-15: 7.0 µg/mL (≈ 17.5 µM)
[5]
  ED50 SK-OV-3: 11.6 µg/mL (≈ 29 µM)

## CC(C)=C1CCC(C)C(C)(COc2ccc3ccc(=O)oc3c2)C1CCC(=O)O (stereo not drawn) [Compound 1, galbanic acid]
[1]
  ED50 A549: 8.9 µg/mL (≈ 22.3 µM)
[2]
  ED50 SK-MEL-2: 12.3 µg/mL (≈ 30.9 µM)
[3]
  ED50 XF498: 13.0 µg/mL (≈ 32.6 µM)
[4]
  ED50 HCT-15: 9.7 µg/mL (≈ 24.3 µM)
[5]
  ED50 SK-OV-3: 14.5 µg/mL (≈ 36.4 µM)

## C=C1CC[C@@H](O)C(C)(C)C1CC/C(C)=C/COc1ccc2ccc(=O)oc2c1 (stereo partly drawn) [Compound 4, farnesiferol B]
[1]
  ED50 A549: 7.2 µg/mL (≈ 18.8 µM)
[2]
  ED50 SK-MEL-2: 7.1 µg/mL (≈ 18.6 µM)
[3]
  ED50 XF498: 7.1 µg/mL (≈ 18.6 µM)
[4]
  ED50 HCT-15: 4.3 µg/mL (≈ 11.2 µM)
[5]
  ED50 SK-OV-3: 10.0 µg/mL (≈ 26.1 µM)
